Counter-ions that a name gives are not always drawn.
Tested on: Platelet Aggregation in Dog PRP
Experiment: In-Vitro Platelet Aggregation in PRP (ADP induced)
Format: cell-based
Conditions: Canis lupus familiaris, Platelet, in-vitro
Description: Healthy male or female dogs were fasted for 8 hours prior to drawing blood; then 30 ml whole blood was collected using a butterfly needle and 30 cc plastic syringe with 3 ml of 0.129 M buffered sodium citrate (3.8%). The syringe was rotated carefully as blood was drawn to mix the citrate. Platelet-rich plasma (PRP) was prepared by centrifugation at 975×g for 3.17 minutes at room temperature, allowing the centrifuge to coast to a stop without braking. The PRP was removed from the blood with a plastic pipette and placed in a plastic capped, 50 ml Corning conical sterile centrifuge tube which was held at room temperature. Platelet poor plasma (PPP) was prepared by centrifuging the remaining blood at 2000×g for 15 minutes at room temperature allowing the centrifuge to coast to a stop without braking. The PRP was adjusted with PPP to a count of 2-3×10^8 platelets per ml. 400 μl of the PRP preparation and 50 μl of the compound to be tested or saline were preincubated for 1 minute at 37° C. in a BioData aggregometer (BioData, Horsham, Pa.). 50 μl of adenosine 5'diphosphate (ADP) (50 μm final concentration) was added to the cuvettes and the aggregation was monitored for 1 minute. All compounds are tested in duplicate. Results are calculated as follows:
Percent of control=[(maximal OD minus initial OD of compound) divided by (maximal OD minus initial OD of control saline)]×100. The % inhibition=100-(percent of control).

Row | SMILES | IC50
1 | N=C(N)c1ccc(CCCCC(=O)NC(CC(=O)O)c2ccccc2O)cc1 (racemic) [(±)-β-[[5-[4-(aminoiminomethyl)phenyl]-1-oxopentyl]amino-2-hydroxybenzenepropanoic acid] | 2000 nM
2 | COc1ccc(C(CC(=O)O)NC(=O)CCCCc2ccc(C(=N)N)cc2)c(O)c1 (racemic) [(±)-β-[[5-[4-(aminoiminomethyl)phenyl]-1-oxopentyl]amino]-2-hydroxy-4-methoxybenzenepropanoic acid] | 690 nM
3 | N=C(N)c1ccc(CCCCC(=O)NC(CC(=O)O)c2cccs2)cc1 (racemic) [(±)-β-[[5-[4-(aminoiminomethyl)phenyl]-1-oxopentyl]amino]-2-thiophenepropanoic acid] | 1700 nM
4 | C[n+]1cccc(C(CC(=O)O)NC(=O)CCCCc2ccc(C(=N)N)cc2)c1 (centres unmarked) [3-[1-[[5-[4-(aminoiminomethyl)phenyl]-1-oxopentyl]amino]-2-carboxyethyl]-1-methylpyridinium chloride] | 5800 nM
5 | C=CC(CC(=O)O)NC(=O)CCCCc1ccc(C(=N)N)cc1 (centres unmarked) [3-[[5-[4-(aminoiminomethyl)phenyl]-1-oxopentyl]amino]-4-pentenoic acid] | 9200 nM
6 | CC(CCC(=O)NC(C)CC(=O)O)Cc1ccc(C(=N)N)cc1 (centres unmarked) [3-[[5-[4-(aminoiminomethyl)phenyl]-4-methyl-1-oxopentyl]amino]butanoic acid] | 1250 nM
7 | C[C@H](CC(=O)O)NC(=O)CCCCc1ccc(C(=N)N)cc1 [3R-[[5-[4-(aminoiminomethyl)phenyl]-1-oxopentyl]amino]butanoic acid] | 1300 nM
8 | N=C(N)c1ccc(CCCCC(=O)NC(CC(=O)O)c2ccc(C(=N)N)cc2)cc1 (stereo not drawn) [4-(aminoiminomethyl)-β-[[5-[4-(aminoiminomethyl)phenyl]-1-oxopentyl]amino]benzenepropanoic acid] | 1800 nM
9 | N=C(N)c1ccc(CCCCC(=O)NCCC(=O)O)cc1 [N-[5-[4 (aminoiminomethyl)phenyl]-1-oxopentyl]-β-alanine] | 6000 nM
10 | N=C(N)c1ccc(CCCCC(=O)NCC(O)C(=O)O)cc1 (stereo not drawn) [N-[5-[4-(Aminoiminomethyl)phenyl]-1-oxopentyl]-2-hydroxy-β-alanine] | 10000 nM
11 | N=C(N)c1ccc(CCCCC(=O)NCCC(=O)OCc2ccccc2)cc1 [N-[5-[4-(Aminoiminomethyl)phenyl]-1-oxopentyl]-β-alanine, phenylmethyl ester] | 5000 nM
12 | N=C(N)c1ccc(CCCCC(=O)NCC(F)C(=O)O)cc1 (stereo not drawn) [N-[5-[4-(Aminoiminomethyl]phenyl]-1-oxopentyl]-2-fluoro-β-alanine] | 30000 nM
13 | N=C(N)c1ccc(CCCCC(=O)NC(CC(=O)O)Cc2ccccc2)cc1 (stereo not drawn) [β-[5-[4-(Aminoiminomethyl)phenyl]-1-oxopentyl]amino]benzenebutanoic acid] | 3000 nM
14 | N=C(N)c1ccc(CCCCC(=O)NC(CC(=O)O)c2ccc(-c3ccccc3)cc2)cc1 (stereo not drawn) [β-[[5-[4-(Aminoiminomethyl)phenyl)-1-oxopentyl]amino][1,1'-biphenyl]-4-propanoic acid, acetate salt] | 2300 nM
15 | N=C(N)c1ccc(C#CCCC(=O)NC(CC(=O)O)c2ccccc2)cc1 (stereo not drawn) [β-[[5-[4-(aminoiminomethyl)phenyl]-1-oxo-4-pentynyl]amino]benzenepropanoic acid] | 1800 nM
16 | N=C(N)c1ccc(CCCCC(=O)NC(CC(=O)O)c2ccc3c(c2)OCO3)cc1 (stereo not drawn) [β-[[5-[4-(aminoiminomethyl)phenyl]-1-oxopentyl]amino]-1,3-benzodioxole-5-propanoic acid] | 280 nM
17 | COc1ccc(C(CC(=O)O)NC(=O)CCCCc2ccc(C(=N)N)cc2)c(OC)c1 (stereo not drawn) [β-[[5-[4-(aminoiminomethyl)phenyl]-1-oxopentyl]amino]-2,4-dimethoxybenzenepropanoic acid] | 2500 nM
18 | COc1ccc(OC)c(C(CC(=O)O)NC(=O)CCCCc2ccc(C(=N)N)cc2)c1 (stereo not drawn) [β-[[5-[4-(aminoiminomethyl)phenyl]-1-oxopentyl]amino]-2,5-dimethoxybenzenepropanoic acid] | 9000 nM
19 | N=C(N)c1ccc(CCCCC(=O)NC(CC(=O)O)c2ccccc2F)cc1 (stereo not drawn) [β-[[5-[4-(aminoiminomethyl)phenyl]-1-oxopentyl]amino]-2-fluorobenzenepropanoic acid] | 5200 nM
20 | N=C(N)c1ccc(CCCCC(=O)NC(CC(=O)O)c2ccccn2)cc1 (stereo not drawn) [β-[[5-[4-(aminoiminomethyl)phenyl]-1-oxopentyl]amino]-2-pyridinepropanoic acid] | 2300 nM
21 | N=C(N)c1ccc(CCCCC(=O)NC(CC(=O)O)c2ccc(Cl)c(Cl)c2)cc1 (stereo not drawn) [β-[[5-[4-(aminoiminomethyl)phenyl]-1-oxopentyl]amino]-3,4-dichlorobenzenepropanoic acid] | 6800 nM

Row | SMILES | IC50
22 | COc1ccc(C(CC(=O)O)NC(=O)CCCCc2ccc(C(=N)N)cc2)cc1OC (stereo not drawn) [β-[[5-[4-(aminoiminomethyl)phenyl]-1-oxopentyl]amino]-3,4-dimethoxybenzenepropanoic acid] | 530 nM
23 | N=C(N)c1ccc(CCCCC(=O)NC(CC(=O)O)c2cc(Cl)cc(Cl)c2)cc1 (stereo not drawn) [β-[[5-[4-(aminoiminomethyl)phenyl]-1-oxopentyl]amino]-3,5-dichlorobenzenepropanoic acid] | 6000 nM
24 | COc1cc(OC)cc(C(CC(=O)O)NC(=O)CCCCc2ccc(C(=N)N)cc2)c1 (stereo not drawn) [β-[[5-[4-(aminoiminomethyl)phenyl]-1-oxopentyl]amino]-3,5-dimethoxybenzenepropanoic acid] | 330 nM
25 | N=C(N)c1ccc(CCCCC(=O)NC(CC(=O)O)c2cccc(C(F)(F)F)c2)cc1 (stereo not drawn) [β-[[5-[4-(aminoiminomethyl)phenyl]-1-oxopentyl]amino]-3-(trifluoromethyl)benzenepropanoic acid] | 7000 nM
26 | N#Cc1cccc(C(CC(=O)O)NC(=O)CCCCc2ccc(C(=N)N)cc2)c1 (stereo not drawn) [β-[[5-[4-(aminoiminomethyl)phenyl]-1-oxopentyl]amino]-3-cyanobenzenepropanoic acid] | 1400 nM
27 | N=C(N)c1ccc(CCCCC(=O)NC(CC(=O)O)C2CC=CCC2)cc1 (stereo not drawn) [β-[[5-[4-(aminoiminomethyl)phenyl]-1-oxopentyl]amino]-3-cyclohexene-1-propanoic acid] | 4000 nM
28 | N=C(N)c1ccc(CCCCC(=O)NC(CC(=O)O)c2cccc(F)c2)cc1 (stereo not drawn) [β-[[5-[4-(aminoiminomethyl)phenyl]-1-oxopentyl]amino]-3-fluorobenzenepropanoic acid] | 1300 nM
29 | COc1cccc(C(CC(=O)O)NC(=O)CCCCc2ccc(C(=N)N)cc2)c1 (stereo not drawn) [β-[[5-[4-(aminoiminomethyl)phenyl]-1-oxopentyl]amino]-3-methoxybenzenepropanoic acid] | 1300 nM
30 | N=C(N)c1ccc(CCCCC(=O)NC(CC(=O)O)c2cccc(Oc3ccccc3)c2)cc1 (stereo not drawn) [β-[[5-[4-(aminoiminomethyl)phenyl]-1-oxopentyl]amino]-3-phenoxybenzenepropanoic acid] | 5100 nM
31 | N=C(N)c1ccc(CCCCC(=O)NC(CC(=O)O)c2cccnc2)cc1 (stereo not drawn) [β-[[5-[4-(aminoiminomethyl)phenyl]-1-oxopentyl]amino]-3-pyridinepropanoic acid] | 120 nM
32 | N=C(N)c1ccc(CCCCC(=O)NC(CC(=O)O)c2ccc(OCc3ccccc3)cc2)cc1 (stereo not drawn) [β-[[5-[4-(aminoiminomethyl)phenyl]-1-oxopentyl]amino]-4-(phenylmethoxy)benzenepropanoic acid] | 1200 nM
33 | N=C(N)c1ccc(CCCCC(=O)NC(CC(=O)O)c2ccc(C(F)(F)F)cc2)cc1 (stereo not drawn) [β-[[5-[4-(aminoiminomethyl)phenyl]-1-oxopentyl]amino]-4-(trifluoromethyl)benzenepropanoic acid] | 4300 nM
34 | N=C(N)c1ccc(CCCCC(=O)NC(CC(=O)O)c2ccc(Br)cc2)cc1 (stereo not drawn) [β-[[5-[4-(aminoiminomethyl)phenyl]-1-oxopentyl]amino]-4-bromobenzenepropanoic acid] | 3100 nM
35 | N=C(N)c1ccc(CCCCC(=O)NC(CC(=O)O)c2ccc(C(=O)O)cc2)cc1 (stereo not drawn) [β-[[5-[4-(aminoiminomethyl)phenyl]-1-oxopentyl]amino]-4-carboxybenzenepropanoic acid] | 1300 nM
36 | N=C(N)c1ccc(CCCCC(=O)NC(CC(=O)O)c2ccc(Cl)cc2)cc1 (stereo not drawn) [β-[[5-[4-(aminoiminomethyl)phenyl]-1-oxopentyl]amino]-4-chlorobenzenepropanoic acid] | 2800 nM
37 | N#Cc1ccc(C(CC(=O)O)NC(=O)CCCCc2ccc(C(=N)N)cc2)cc1 (stereo not drawn) [β-[[5-[4-(aminoiminomethyl)phenyl]-1-oxopentyl]amino]-4-cyanobenzenepropanoic acid] | 1300 nM
38 | CCOc1ccc(C(CC(=O)O)NC(=O)CCCCc2ccc(C(=N)N)cc2)cc1 (stereo not drawn) [β-[[5-[4-(aminoiminomethyl)phenyl]-1-oxopentyl]amino]-4-ethoxybenzenepropanoic acid] | 400 nM
39 | N=C(N)c1ccc(CCCCC(=O)NC(CC(=O)O)c2ccc(F)cc2)cc1 (stereo not drawn) [β-[[5-[4-(aminoiminomethyl)phenyl]-1-oxopentyl]amino]-4-fluorobenzenepropanoic acid] | 3000 nM
40 | N=C(N)c1ccc(CCCCC(=O)NC(CC(=O)O)c2ccc(O)cc2)cc1 (stereo not drawn) [β-[[5-[4-(aminoiminomethyl)phenyl]-1-oxopentyl]amino]-4-hydroxybenzenepropanoic acid] | 800 nM
41 | N=C(N)c1ccc(CCCCC(=O)NC(CC(=O)O)c2ccc(Oc3ccccc3)cc2)cc1 (stereo not drawn) [β-[[5-[4-(aminoiminomethyl)phenyl]-1-oxopentyl]amino]-4-phenoxybenzenepropanoic acid] | 2000 nM

— patent publication US5220050A, “Peptide mimetic compounds useful as platelet aggregation inhibitors” (G. D. Searle & Co., priority 1991, dated 1993)
